# Key:
# Test in all cases: Histone peptide microarray
# Format in all cases: binding, human
# Conditions in all cases: histone peptide array
# CHD5 (PCC) = tested on: CHD5 (PCC)
# Method in brief: (§1)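 Mean ± SD of 4 replicate array intensities; GST-PHD finger at 0.5 μM against 293 PTM-bearing histone peptides.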
# ING4 = tested on: ING4
# Method in brief: as §1
# KDM7A = tested on: KDM7A
# Method in brief: as §1
# KDM4C (TTP) = tested on: KDM4C (TTP)
# Method in brief: as §1
# CHD4 (PPCC) = tested on: CHD4 (PPCC)
# Method in brief: as §1
# SP140L = tested on: SP140L
# Method in brief: as §1
# AIRE (PP) = tested on: AIRE (PP)
# Method in brief: as §1
# KDM5B (3) = tested on: KDM5B (3)
# Method in brief: as §1
# ING1 = tested on: ING1
# Method in brief: as §1
# PHF13 = tested on: PHF13
# Method in brief: as §1
# ING5 = tested on: ING5
# Method in brief: as §1
# PHF21A = tested on: PHF21A
# Method in brief: as §1
# BAZ2B = tested on: BAZ2B
# Method in brief: as §1
# PHF2 = tested on: PHF2
# Method in brief: as §1
# TRIM66 (PB) = tested on: TRIM66 (PB)
# Method in brief: as §1
# ING3 = tested on: ING3
# Method in brief: as §1
# KDM5B (1) = tested on: KDM5B (1)
# Method in brief: as §1
# BPTF (PB) = tested on: BPTF (PB)
# Method in brief: as §1
# PHF23 = tested on: PHF23
# Method in brief: as §1
# PHRF1 (RP) = tested on: PHRF1 (RP)
# Method in brief: as §1
# MLL5 = tested on: MLL5
# Method in brief: as §1
# MORC3 (CW) = tested on: MORC3 (CW)
# Method in brief: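 Binding read as mean relative signal from 4 replicates; microarray held 293 synthetic histone peptides with single or combinatorial PTMs. Each GST-tagged PHD reader was applied at 0.5 μM using the optimized Petell protocol.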
# DPF2 (PPC2W2) = tested on: DPF2 (PPC2W2)
# Method in brief: as §1
# KDM5A (1) = tested on: KDM5A (1)
# Method in brief: as §1
# CHD5 (PPCC) = tested on: CHD5 (PPCC)
# Method in brief: as §1
# ING2 = tested on: ING2
# Method in brief: as §1
# DIDO1 = tested on: DIDO1
# Method in brief: as §1
# KDM5A (3) = tested on: KDM5A (3)
# Method in brief: as §1
# TAF3 = tested on: TAF3
# Method in brief: as §1
# PHF8 = tested on: PHF8
# Method in brief: as §1
# RAG2 = tested on: RAG2
# Method in brief: as §1
# [1] = sheet "Array Heatmap", GST-tagged reader, total n = 4
substance,measurement,setting,value
H3T3p: H3 1-20 [Peptide H3T3p],"Array Heatmap signal, CHD5 (PCC)","CHD5 (PCC); GST-tagged CHD5 (PCC = PHD + Dual Chromodomain), arrays performed twice, n of 4",0.8206
same,"Array Heatmap signal, CHD5 (PCC)",CHD5 (PCC); [1],0.8423
same,"Array Heatmap signal, ING4","ING4; GST-tagged ING4, arrays performed twice, n of 4",0.4601
same,"Array Heatmap signal, ING4",ING4; [1],0.5373
same,"Array Heatmap signal, KDM7A","KDM7A; GST-tagged KDM7A, arrays performed twice, n of 4",0.4522
same,"Array Heatmap signal, KDM7A",KDM7A; [1],0.4256
same,"Array Heatmap signal, KDM4C (TTP)","KDM4C (TTP); GST-tagged KDM4C (TTP = Tandem Tudor domain + PHD), arrays performed twice, n of 4",0.5211
same,"Array Heatmap signal, KDM4C (TTP)",KDM4C (TTP); [1],0.5646
same,"Array Heatmap signal, CHD4 (PPCC)","CHD4 (PPCC); GST-tagged CHD4 (PPCC = Dual PHD + Dual Chromodomain), arrays performed twice, n of 4",0.5719
same,"Array Heatmap signal, CHD4 (PPCC)",CHD4 (PPCC); [1],0.6586
same,"Array Heatmap signal, SP140L","SP140L; GST-tagged SP140L, arrays performed twice, n of 4",0.3332
same,"Array Heatmap signal, SP140L",SP140L; [1],0.3882
same,"Array Heatmap signal, AIRE (PP)","AIRE (PP); GST-tagged AIRE (PP), arrays performed twice, n of 4",0.5392
same,"Array Heatmap signal, AIRE (PP)",AIRE (PP); [1],0.548
same,"Array Heatmap signal, KDM5B (3)","KDM5B (3); GST-tagged KDM5B (3), arrays performed twice, n of 4",0.5071
same,"Array Heatmap signal, KDM5B (3)",KDM5B (3); [1],0.5631
same,"Array Heatmap signal, ING1","ING1; GST-tagged ING1, arrays performed twice, n of 4",0.5096
same,"Array Heatmap signal, ING1",ING1; [1],0.5929
same,"Array Heatmap signal, PHF13","PHF13; GST-tagged PHF13, arrays performed twice, n of 4",0.5934
same,"Array Heatmap signal, PHF13",PHF13; [1],0.6741
same,"Array Heatmap signal, ING5","ING5; GST-tagged ING5, arrays performed twice, n of 4",0.3543
same,"Array Heatmap signal, ING5",ING5; [1],0.4158
same,"Array Heatmap signal, PHF21A","PHF21A; GST-tagged PHF21A, arrays performed twice, n of 4",0.4766
same,"Array Heatmap signal, PHF21A",PHF21A; [1],0.5237
same,"Array Heatmap signal, BAZ2B","BAZ2B; GST-tagged BAZ2B, arrays performed twice, n of 4",0.469
same,"Array Heatmap signal, BAZ2B",BAZ2B; [1],0.5253
same,"Array Heatmap signal, PHF2","PHF2; GST-tagged PHF2, arrays performed twice, n of 4",0.434
same,"Array Heatmap signal, PHF2",PHF2; [1],0.5551
same,"Array Heatmap signal, TRIM66 (PB)","TRIM66 (PB); GST-tagged TRIM66 (PB = PHD + Bromodomain), arrays performed twice, n of 4",0.6313
same,"Array Heatmap signal, TRIM66 (PB)",TRIM66 (PB); [1],0.6558
same,"Array Heatmap signal, ING3","ING3; GST-tagged ING3, arrays performed twice, n of 4",0.4483
same,"Array Heatmap signal, ING3",ING3; [1],0.5306
same,"Array Heatmap signal, KDM5B (1)","KDM5B (1); GST-tagged KDM5B (1), arrays performed twice, n of 4",0.6719
same,"Array Heatmap signal, KDM5B (1)",KDM5B (1); [1],0.685
same,"Array Heatmap signal, BPTF (PB)","BPTF (PB); GST-tagged BPTF (PB = PHD + Bromodomain), arrays performed twice, n of 4",0.3368
same,"Array Heatmap signal, BPTF (PB)",BPTF (PB); [1],0.3878
same,"Array Heatmap signal, PHF23","PHF23; GST-tagged PHF23, arrays performed twice, n of 4",0.4911
same,"Array Heatmap signal, PHF23",PHF23; [1],0.575
same,"Array Heatmap signal, PHRF1 (RP)","PHRF1 (RP); GST-tagged PHRF1 (RP), arrays performed twice, n of 4",0.4037
same,"Array Heatmap signal, PHRF1 (RP)",PHRF1 (RP); [1],0.5425
same,"Array Heatmap signal, MLL5","MLL5; GST-tagged MLL5, arrays performed twice, n of 4",0.5378
same,"Array Heatmap signal, MLL5",MLL5; [1],0.5888
same,"Array Heatmap signal, MORC3 (CW)","MORC3 (CW); GST-tagged MORC3 (CW = CW-type Zn-finger), arrays performed twice, n of 4",0.3786
same,"Array Heatmap signal, MORC3 (CW)",MORC3 (CW); [1],0.4886
same,"Array Heatmap signal, DPF2 (PPC2W2)","DPF2 (PPC2W2); GST-tagged DPF2 (PPC2W2 = Dual PHD + C2W2-type Zn-finger), arrays performed twice, n of 4",0.671
same,"Array Heatmap signal, DPF2 (PPC2W2)",DPF2 (PPC2W2); [1],0.7196
same,"Array Heatmap signal, KDM5A (1)","KDM5A (1); GST-tagged KDM5A (1), arrays performed twice, n of 4",0.4969
same,"Array Heatmap signal, KDM5A (1)",KDM5A (1); [1],0.535
same,"Array Heatmap signal, CHD5 (PPCC)","CHD5 (PPCC); GST-tagged CHD5 (PPCC = Dual PHD + Dual Chromodomain), arrays performed twice, n of 4",0.549
same,"Array Heatmap signal, CHD5 (PPCC)",CHD5 (PPCC); [1],0.6245
same,"Array Heatmap signal, ING2","ING2; GST-tagged ING2, arrays performed twice, n of 4",0.5798
same,"Array Heatmap signal, ING2",ING2; [1],0.6196
same,"Array Heatmap signal, DIDO1","DIDO1; GST-tagged DIDO1, arrays performed twice, n of 4",0.6402
same,"Array Heatmap signal, DIDO1",DIDO1; [1],0.7808
same,"Array Heatmap signal, KDM5A (3)","KDM5A (3); GST-tagged KDM5A (3), arrays performed twice, n of 4",0.3913
same,"Array Heatmap signal, KDM5A (3)",KDM5A (3); [1],0.4935
same,"Array Heatmap signal, TAF3","TAF3; GST-tagged TAF3, arrays performed twice, n of 4",0.2971
same,"Array Heatmap signal, TAF3",TAF3; [1],0.3113
same,"Array Heatmap signal, PHF8","PHF8; GST-tagged PHF8, arrays performed twice, n of 4",0.352
same,"Array Heatmap signal, PHF8",PHF8; [1],0.4275
same,"Array Heatmap signal, RAG2","RAG2; GST-tagged RAG2, arrays performed twice, n of 4",0.2333
same,"Array Heatmap signal, RAG2",RAG2; [1],0.2772
H3R17me2a + K18ac (1-25): H3 1-25,"Array Heatmap signal, CHD5 (PCC)",CHD5 (PCC); [1],0.615
same,"Array Heatmap signal, ING4",ING4; [1],0.3381
same,"Array Heatmap signal, KDM7A",KDM7A; [1],0.2298
same,"Array Heatmap signal, KDM4C (TTP)",KDM4C (TTP); [1],0.324
same,"Array Heatmap signal, CHD4 (PPCC)",CHD4 (PPCC); [1],0.4858
same,"Array Heatmap signal, SP140L",SP140L; [1],0.2916
same,"Array Heatmap signal, AIRE (PP)",AIRE (PP); [1],0.3677
same,"Array Heatmap signal, KDM5B (3)",KDM5B (3); [1],0.4124
same,"Array Heatmap signal, ING1",ING1; [1],0.4981
same,"Array Heatmap signal, PHF13",PHF13; [1],0.4521
same,"Array Heatmap signal, ING5",ING5; [1],0.251
same,"Array Heatmap signal, PHF21A",PHF21A; [1],0.3605
same,"Array Heatmap signal, BAZ2B",BAZ2B; [1],0.3556
same,"Array Heatmap signal, PHF2",PHF2; [1],0.4874
same,"Array Heatmap signal, TRIM66 (PB)",TRIM66 (PB); [1],0.6221
same,"Array Heatmap signal, ING3",ING3; [1],0.4176
same,"Array Heatmap signal, KDM5B (1)",KDM5B (1); [1],0.6531
same,"Array Heatmap signal, BPTF (PB)",BPTF (PB); [1],0.2769
same,"Array Heatmap signal, PHF23",PHF23; [1],0.4823
same,"Array Heatmap signal, PHRF1 (RP)",PHRF1 (RP); [1],0.7492
same,"Array Heatmap signal, MLL5",MLL5; [1],0.4712
same,"Array Heatmap signal, MORC3 (CW)",MORC3 (CW); [1],0.4929
same,"Array Heatmap signal, DPF2 (PPC2W2)",DPF2 (PPC2W2); [1],0.608
same,"Array Heatmap signal, KDM5A (1)",KDM5A (1); [1],0.3724
same,"Array Heatmap signal, CHD5 (PPCC)",CHD5 (PPCC); [1],0.4057
same,"Array Heatmap signal, ING2",ING2; [1],0.5776
same,"Array Heatmap signal, DIDO1",DIDO1; [1],0.5785
same,"Array Heatmap signal, KDM5A (3)",KDM5A (3); [1],0.5578
same,"Array Heatmap signal, TAF3",TAF3; [1],0.2141
same,"Array Heatmap signal, PHF8",PHF8; [1],0.2767
same,"Array Heatmap signal, RAG2",RAG2; [1],0.2079

# Source: article PMC6979384, “Characterization of the plant homeodomain (PHD) reader family for their histone tail interactions” (Epigenetics & Chromatin, 2020)
